Source: patent US20180346505A1, “MONONUCLEOTIDES HAVING A BIOREVERSIBLE DISULFIDE GROUP” (priority 2014, published 2018)

Assays:
[1] = system: GT1a S282T NS5B mutant replicon; assay: HCV NS5B mutant replicon assay, GT1a S282T; assay type: cell-based; details: Hepatitis C virus, Huh-7, 72 h, read-out: GT1a S282T EC50
Experimental: (§1) The antiviral activity of the test compounds was assessed in the wild type GT1b (Con1), GT1a (H77), and GT1b/2a, GT1b/3a, GT1b/4a and GT1b/5a NS5B chimeric replicons, as well as the NS5B mutant replicons listed in Table 2a and 2b.
(§2) The HCV replicon mutants were generated by site-directed mutagenesis (SDM). The SDM was performed by PCR and the PCR fragments were inserted into the backbone replicon construct. The inserted PCR fragments and the mutants were confirmed by sequencing.
(§3) All the replicon assays were luciferase based in Huh-7 cells, either in stable format (GT1b and GT1a) or by transient transfection by electroporation (chimeric and mutant replicons). For a standard HCV replicon assay, stable or transiently transfected Huh-7 cells were seeded in 96-well plates (5,000 cells/well), cultured in DMEM containing 10% FBS, and incubated at 37° C., 5% CO2. On the following day, test compounds were diluted with assay media and added to the appropriate wells (final DMSO concentration in the cell culture medium was 0.5%). Assay reference positive control was included in each run to ensure assay performance. Cells were incubated at 37° C., 5% CO2 for 72 hours, at which time the cells were still sub-confluent. The antiviral activity was determined by measuring replicon reporter firefly luciferase activity using Bright Glo kit in accordance with the protocol provided by the supplier (Promega). The toxicity of the test compounds was assessed by CytoTox-1 cell proliferation assay (Promega). The half maximal effective concentration (EC50) and the half maximal toxic concentration (TC50) values were calculated using the GraphPad Prism software.

[2] = Nucleoside phosphoester stability in simulated gastric fluid; assay type: in vitro ADME; details: simulated gastric fluid pH 1.2, 2 μM, 37° C.
Experimental: Test compounds at 2 μM were incubated at 37° C. with simulated gastric fluid (SGF, 0.2% (w/v) sodium chloride in 0.7% (v/v) hydrochloric acid, deionized water, 0.3% pepsin (w/v), pH 1.2). Duplicate samples were used. Samples were removed at 0, 15, 30, 60, 120, 360 and 1440 min, immediately mixed with cold acetonitrile containing internal standard (IS), and stored at −80° C. before analysis. Omeprazole was used as a positive control. Samples were analyzed by LC/MS/MS method, and disappearance of test compound was assessed by comparison of peak area ratios of analyte/IS and reported as % test compound remaining at each time point.

[3] = system: GT1b/5a NS5B chimeric replicon; assay: HCV replicon assay, GT1b/5a NS5B chimeric replicon, transient transfection; assay type: cell-based, hepatitis C virus; details: Hepatitis C virus, Huh-7, 72 h, read-out: GT5a EC50, GT1b/5a NS5B chimeric replicon, Huh-7 cells, luciferase, 72 hours
Experimental: as §1
(§4) To generate HCV NS5B chimeric replicons, the GT1 b replicon was used as a backbone with the NS5B gene replaced with the NS5B gene of GT2a, GT3a, GT4a and GT5a derived from clinical isolates. These NS5B genes were cloned into the GT1b backbone and were confirmed by sequencing.
as §3

[4] = system: GT1b/3a NS5B chimeric replicon; assay: HCV replicon assay, GT1b/3a NS5B chimeric replicon, transient transfection; assay type: cell-based, hepatitis C virus; details: Hepatitis C virus, Huh-7, 72 h, read-out: GT3a EC50, GT1b/3a NS5B chimeric replicon, Huh-7 cells, luciferase, 72 hours
Experimental: as §1, §4, §3

[5] = system: GT1b C316N NS5B mutant replicon; assay: HCV NS5B mutant replicon assay, GT1b C316N; assay type: cell-based; details: Hepatitis C virus, Huh-7, 72 h, read-out: GT1b C316N EC50
Experimental: as §1, §2, §3

Huh-7 cells = assay: Toxicity by CytoTox-1 cell proliferation assay (TC50) and selectivity index; assay type: cell-based; details: TC50 by CytoTox-1 cell proliferation assay over replicon EC50, Huh-7 cells
Experimental: as §3

[6] = system: GT1a L159F NS5B mutant replicon; assay: HCV NS5B mutant replicon assay, GT1a L159F; assay type: cell-based; details: Hepatitis C virus, Huh-7, 72 h, read-out: GT1a L159F EC50
Experimental: as §1, §2, §3

[7] = system: GT1b S282T NS5B mutant replicon; assay: HCV NS5B mutant replicon assay, GT1b S282T; assay type: cell-based; details: Hepatitis C virus, Huh-7, 72 h, read-out: GT1b S282T EC50
Experimental: as §1, §2, §3

GT1b (Con1) HCV replicon = assay: HCV replicon assay, wild type GT1b (Con1), luciferase based, stable format; assay type: cell-based, hepatitis C virus; details: Huh-7 cells
Experimental: as §1, §3

GT1a (H77) HCV replicon = assay: HCV replicon assay, wild type GT1a (H77), luciferase based, stable format; assay type: cell-based, hepatitis C virus; details: Hepatitis C virus, GT1A, Huh-7, 72 h, Huh-7 cells
Experimental: as §1, §3

[8] = system: GT1b/4a NS5B chimeric replicon; assay: HCV replicon assay, GT1b/4a NS5B chimeric replicon, transient transfection; assay type: cell-based, hepatitis C virus; details: Hepatitis C virus, Huh-7, 72 h, read-out: GT4a EC50, GT1b/4a NS5B chimeric replicon, Huh-7 cells, luciferase, 72 hours
Experimental: as §1, §4, §3

[9] = system: GT1b S96T NS5B mutant replicon; assay: HCV NS5B mutant replicon assay, GT1b S96T; assay type: cell-based; details: Hepatitis C virus, Huh-7, 72 h, read-out: GT1b S96T EC50
Experimental: as §1, §2, §3

[10] = system: GT1b/2a NS5B chimeric replicon; assay: HCV replicon assay, GT1b/2a NS5B chimeric replicon, transient transfection; assay type: cell-based, hepatitis C virus; details: Hepatitis C virus, Huh-7, 72 h, read-out: GT2a EC50, GT1b/2a NS5B chimeric replicon, Huh-7 cells, luciferase, 72 hours
Experimental: as §1, §4, §3

[11] = system: GT3a V321A NS5B mutant replicon; assay: HCV NS5B mutant replicon assay, GT3a V321A; assay type: cell-based; details: Hepatitis C virus, Huh-7, 72 h, read-out: GT3a V321A EC50
Experimental: as §1, §4, §2, §3

[12] = Hepatitis C virus, GT1B, Huh-7, 72 h

SMILES	EC50 [1] [nM]	% Remaining ([2]; 0 min) [%]	% Remaining ([2]; 15 min) [%]	% Remaining ([2]; 30 min) [%]	% Remaining ([2]; 60 min) [%]	% Remaining ([2]; 120 min) [%]	% Remaining ([2]; 360 min) [%]	% Remaining ([2]; 1440 min) [%]	EC50 [3] [nM]	EC50 [4] [nM]	EC50 [5] [nM]	Selectivity Index (TC50/EC50) (Huh-7 cells)	EC50 [6] [nM]	EC50 [7] [nM]	EC50 (GT1b (Con1) HCV replicon; [12]) [nM]	EC50 (GT1a (H77) HCV replicon) [nM]	EC50 [8] [nM]	EC50 [9] [nM]	EC50 [10] [nM]	EC50 [11] [nM]	further results
CC(C)(C)SSc1ccccc1CCOP1(=O)OC[C@H]2O[C@@H](n3ccc(=O)[nH]c3=O)[C@](C)(F)[C@@H]2O1 (single isomer, unassigned) [Compound 7A]	60	100.00	95.13	99.01	92.49	91.52	91.60	70.36	8	8	9	>500	11	65	9	5 to 8	5	8	3	12	EC50 (GT1b (Con1) HCV replicon; 72 hours): 5 to 8 nM
CC(C)OC(=O)[C@H](C)N[P@](=O)(OC[C@H]1O[C@@H](n2ccc(=O)[nH]c2=O)[C@](C)(F)[C@@H]1O)Oc1ccccc1 [sofosbuvir, reference compound]	194 to 694	100.00	93.47	99.50	99.63	95.33	87.35	61.36	65	90 to 95	25	>100	80	446 to 554	36 to 66	40 to 61	54	62 to 314	36	166	–
